Results taken from the METLIN SMRT retention time set (Domingo-Almenara et al. 2019).

Experiment: gradient 5% acetonitrile 3 min, to 50% in 2 min, to 85% in 15 min, held 3 min, 100 µL/min
Conditions: column: Zorbax Extend-C18 2.1 x 50 mm; eluents: water / acetonitrile, 0.1% formic acid
Procedure, shortened: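 Retention time was recorded from adduct peaks, which were picked computationally and each inspected manually. Pure standards ran in mixtures of ~100 molecules on HPLC coupled to a quadrupole time-of-flight mass spectrometer, in positive and negative ionization mode, through a Zorbax Extend-C18 column (2.1 × 50 mm, 1.8 μm) at 100 μL/min. Eluents were water and acetonitrile, each with 0.1% formic acid.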

Structure (SMILES) | RP-LC retention time [s]
COc1ccc(NC(=O)CSc2nnc3c4sc(N5CCCC5)nc4ncn23)cc1 | 754
CCOCC1CCC2(CCN(C(=O)Cn3c(=O)oc4cc(Cl)ccc43)CC2)O1 (stereo not given) | 900
O=C(C1CC1)N1CCc2sc(S(=O)(=O)Nc3ccc(Cl)cc3F)cc2C1 | 887
CCCCNC(=O)CCc1cc2cc(OC)ccc2[nH]c1=O | 664
COc1ccccc1-c1noc(Cn2ncn3nc(-c4ccc(C)cc4C)cc3c2=O)n1 | 1130
Cc1cccc(NC(=O)CSc2nc(=O)n(CCN(C)C)c3c2CCC3)c1 | 570
CCOC(=O)C1=C(CN2CC(C)CC(C)C2)NC(=O)NC1c1ccc(OC(C)C)cc1 (stereo not given) | 708
CCOC(=O)c1c(C)oc2ncnc(NCCc3c[nH]c4ccccc34)c12 | 1050
COCCn1c(SCc2nc(-c3ccc(Cl)cc3)no2)nc2cc3c(cc2c1=O)OCO3 | 1180
Cc1nnc2ccc(-c3noc(-c4ccc(F)cc4)n3)cn12 | 865
COC(=O)c1sc2ccccc2c1NC(=O)c1ccc([N+](=O)[O-])o1 | 871
CC(C)CC(=O)Nc1ccc(-n2cnc(C(=O)NC3CC3)c2)nc1 | 668
CCC(CC)C(=O)Oc1coc(CSc2nc(C)cs2)cc1=O | 882
COc1ccc(C2C(C(=O)NCc3ccccc3OC)c3ccccc3C(=O)N2C)cc1 (stereo not given) | 864
CCC1Oc2ccc(S(=O)(=O)N3CCC(C(=O)N(C)Cc4ccco4)CC3)cc2NC1=O (stereo not given) | 800
CCCNC(=O)C1CCN(c2ccc(SCC(=O)NCc3ccc(C)cc3)nn2)CC1 | 656
Cn1cccc1C(=O)N1CCC(OCc2nc(C3CC3)no2)CC1 | 799
COc1ccccc1OCC1c2ccsc2CCN1C(=O)CN(C(C)=O)C(C)C (stereo not given) | 773
CCOC(=O)C1=C(CN(C)Cc2ccccc2)NC(=O)NC1c1ccccc1 (stereo not given) | 652

Structure (SMILES) | RP-LC retention time [s]
Cn1cnc2cc(CNC(=O)c3cccc(Cl)c3)ccc21 | 631
Cc1nnc2ccc(N3CCN(C(=O)CSc4nc5ccccc5s4)CC3)nn12 | 652
CC(C)(C)CCN1CCCC(COc2ccccc2C(=O)N2CCCC2)C1 (stereo not given) | 668
CCOc1ccc(CCNC(=O)c2nc(CCS(=O)(=O)c3ccc(F)cc3)no2)cc1OCC | 952
CCOC(=O)Cc1csc(NC(=O)CNC(=O)c2c[nH]c3ccccc23)n1 | 670
CC(C)[C@@H](CN1CC[C@@](C)(c2cccc(O)c2)[C@@H](C)C1)NC(=O)[C@H]1Cc2ccc(O)cc2CN1 | 555
Cc1cccc(NC(=O)NCCc2cn(CC(C)C)c3ncccc23)c1C | 839
Cc1nc(-c2ccc(-c3noc(C(C)NC(=O)c4ccco4)n3)cc2)cs1 (stereo not given) | 863
O=c1n(CC2CC2)nc2n1CCN(S(=O)(=O)c1ccccc1C(F)(F)F)C2 | 803
Cc1cc(NC(=O)N2CCC(n3cnnc3C3CC3)C2)ccc1Br (stereo not given) | 692
CC(C)c1cc(=O)n(CC(=O)Nc2cccc3nsnc23)cn1 | 664
COc1ccc(C2(C(=O)NCc3nn(C)c4c3CN(C)CC4)CC2)cc1 | 865
CSc1ccc(-c2nc3cccc(C)n3c2Nc2ccc(Cl)cc2)cc1 | 788
Cc1ccc(C)c(C(=O)N2CCCC(COc3ccc(C(=O)NC4CC4)cc3)C2)c1 (stereo not given) | 849
Cn1cc(-c2ccncc2)cc1C(=O)N1CCC2(CC1)OCCO2 | 562
Cc1cccc(N2CCN([C@H]3CS(=O)(=O)C[C@@H]3S(=O)(=O)c3ccccc3)CC2)c1 | 876
O=S(=O)(Nc1ccc(Cn2cncn2)cc1)c1ccc(F)c(Cl)c1 | 758
COc1ccc(C2(C(=O)N3CCCOCCNC(=O)[C@@H]4CCC[C@@H]43)CC2)cc1 | 711
O=C(CSc1ccc(F)cc1)Nc1ccc2c(c1)CC(=O)N2 | 646

Structure (SMILES) | RP-LC retention time [s]
COc1cccc(-c2noc(N3CCCCC3)n2)c1 | 1070
CCc1nc(-c2ccc(-c3noc(-c4ccco4)n3)cc2)cs1 | 1170
CCNc1cc(N2CCC(CCC(=O)NCc3ccc(F)c(Cl)c3)CC2)ncn1 | 682
COc1ccc(CNC(=O)C2CCCN(S(=O)(=O)c3ccc(OC)c(Cl)c3)C2)cc1 (stereo not given) | 917
Cc1ccc(NC(=O)C2C(=O)N(CCO)C3(C)CC2c2ccccc2O3)cc1 (stereo not given) | 727
COc1ccccc1N1CCN(C(=O)c2cn3cc(Cl)ccc3n2)CC1 | 858
CCCn1cc(CCNC(=O)Nc2cc(F)c(F)c(F)c2)c2cccnc21 | 866
Cc1ccc(C(=O)N2CCN(c3cc(-c4cccs4)[nH]n3)CC2)c(C)c1 | 831
Cc1ccoc1C(=O)Nc1ccc(C(N)=O)cc1 | 629
COc1ccc2c(c1[N+](=O)[O-])CC[C@@H]1[C@@H]2CC[C@]2(C)C(=O)CC[C@@H]12 | 1050
Cc1ccc(-n2nc(CO)c(C(=O)NC(C)C)n2)cc1C | 983
CCc1nn(CC(=O)N2CCN(c3ncccn3)CC2)c(=O)c2cc3sccc3n12 | 730
Cc1ccc2c(c1)C1CC(C)(O2)N(c2ccc(C(=O)O)cc2)C(=O)N1 (stereo not given) | 709
CCCN1CCN(c2ncc3c(n2)CCN(Cc2ccc(OC(C)C)cc2)C3)CC1 | 581
C#CC(C)(CC)OCC(O)CN1C(C)(C)CC(O)CC1(C)C (stereo not given) | 568
CCOc1ccc2c(n1)CCN(C(=O)Nc1cc(C)ccc1C)C2 | 862
O=C(c1ccco1)N1CCN(c2ccc(=O)n(-c3ccc(Cl)cc3)n2)CC1 | 768
CS(=O)(=O)N[C@H]1C[C@@H]2C[C@H]1N(C(=O)Cc1c(F)cccc1Cl)C2 | 717

The next lines start with the values.

RP-LC retention time [s] | Structure (SMILES)
679 | Cc1c(C(=O)Nc2ccccc2)sc2nc[nH]c(=O)c12
831 | Cc1cccc(NC(=O)Cn2c(=O)n(-c3ccccc3)c(=O)c3c2cc(C)n3C)c1
819 | Cc1ccc(N2CC(c3noc(-c4ccccc4)n3)CC2=O)cc1 (stereo not given)
737 | Cc1ccc(Cn2c(=O)n(CCNC(=O)c3cnccn3)c3ncccc32)cc1
695 | O=C(Cc1csc(NC(=O)NC2CCCCC2)n1)NCc1ccco1
809 | CCc1ccc(NC(=O)CSc2nc(N3CCCCC3)nc3ccccc23)cc1
753 | Cn1cc(-c2cc3n(n2)CCCN3C(=O)CCC(=O)N2CCCCC2)c2ccccc21
639 | Cc1c(C2CCN(C(=O)NCc3ccccc3)CC2)noc1N
798 | O=C(NCCCn1nc(-c2ccc(Cl)cc2)ccc1=O)C1CCCC1
617 | O=C(O)c1nc(N2CCCC2)c2oc3ccccc3c2n1
996 | Cc1cc(F)ccc1NC(=O)Cn1c(=O)cc(-c2nc(C(C)C)no2)c2ccccc21
669 | O=C(Nc1cccnc1)c1c2c(nc3ccccc13)C(=O)N(C1CCCCC1)C2
924 | COc1ccc(CNC(=O)c2csc(-c3cn(C)c4ncccc34)n2)c(OC)c1
605 | COC(=O)C(C)NC(=O)N1CCN(c2nc3ccccc3n3cccc23)CC1 (stereo not given)
666 | COc1cccc(NC(=O)C2CCN(c3nnc4c(Cl)cccn34)CC2)c1
570 | CCN1CCN(CCNC(=O)C2CCCN(c3nnc(C)c4c(C)n(-c5ccccc5)nc34)C2)CC1 (stereo not given)
547 | O=C(Cc1ccc(NC(=O)c2ccncc2)cc1)NC1CC1

RP-LC retention time [s] | Structure (SMILES)
627 | O=C(NCc1nc2ccccc2n1CC(=O)N1CCCCCC1)c1ccco1
680 | Cc1cccn2cc(-c3ccc(NC(=O)c4ncccn4)cc3)nc12
818 | COc1ccc(C2(C)OC(c3cc(C)nc4ccccc34)=NN2C(C)=O)c(OC)c1 (stereo not given)
672 | Cc1nc2cccnc2n1CC1CCCN(S(=O)(=O)c2ccc3c(c2)OCCO3)C1 (stereo not given)
877 | Cc1sc(NC(=O)CSc2nnc(COc3ccccc3)o2)nc1-c1ccccc1
925 | N#Cc1ccc(C(=O)N2CCCC2c2nc(-c3ccccc3)no2)cc1 (stereo not given)
755 | Cc1ccc(CNC(=O)Cn2nc(C(=O)N3CCCC3)c3ccccc32)o1
1050 | Cc1ccc(C)c(N2CCN(C(=O)c3ccc4c(c3)NC(=O)C3CCCCN43)CC2)c1 (stereo not given)
1100 | Cc1cc2nn(CC(=O)Nc3cccc(Cl)c3)c(=O)n2c(Nc2ccccc2C)n1
845 | CCOc1ccc(NC(=O)Cn2c(=O)nc(N3CCCC(C)C3)c3ccccc32)cc1 (stereo not given)
995 | c1ccc(-c2nc3nccc(-c4cccc5ccccc45)n3n2)cc1
791 | O=S(=O)(c1ccccc1)N1CCC(c2noc(-c3ccc(F)cc3)n2)CC1
1040 | Cc1ccc2c(c1)N(Cc1nc(-c3ccccc3Cl)no1)C(=O)CO2
946 | O=C(c1cc(F)cc(F)c1)N1CCc2nc(-c3ccccc3)ncc2C1
841 | CCOC(=O)c1nc(Nc2ccc(C(=O)OC)cc2)c2ccccc2n1
1020 | O=C(Nc1cc(F)ccc1F)N1CCCC1c1nc(-c2ccccc2)no1 (stereo not given)
738 | Cc1c(Cl)cccc1S(=O)(=O)Nc1ccccc1N1CCNC(=O)C1
